Experimental data published in paper PMC11046469, “Leveraging a Phage-Encoded Noncanonical Amino Acid: A Novel Pathway to Potent and Selective Epigenetic Reader Protein Inhibitors” (ACS Central Science, 2024).
Where “and” joins values, the source holds several entries; their conditions need not be identical. Identical values can stand only once. Where a SMILES comes first, the peptide text is derived from it. The star is where a group is joined. Oxazole(5-CO) = O=C(c1cnco1)*; Crotonyl(E) = C/C=C/C(=O)*; 2Furoyl = O=C(c1ccco1)*; Butyryl = CCCC(=O)*

Legend:
[1] = molecular target: T1, ENL YEATS domain (His-ENL YEATS) (Homo sapiens, UniProt Q03111); assay: AlphaScreen inhibition of ENL YEATS binding to biotinylated H3K27cr peptide; conditions: mean ± SD, n = 3
T1 construct: (aa 1−148) was cloned in pET19b; made in house; host or cells: E. coli BL21(DE3pLysS)
T1 sequence (Q03111 1-148): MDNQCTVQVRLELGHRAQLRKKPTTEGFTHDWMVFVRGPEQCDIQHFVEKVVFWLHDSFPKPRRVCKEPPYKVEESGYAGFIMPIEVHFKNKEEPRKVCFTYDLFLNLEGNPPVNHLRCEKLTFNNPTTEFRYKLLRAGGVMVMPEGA
Description: (§1) To test the inhibition potency of the two selected peptides for the ENL YEATS domain, ENL-S1 and ENL-S2 were chemically synthesized through solid-phase peptide synthesis (SPPS) and evaluated by an AlphaScreen assay. In this assay, a biotinylated H3K27cr peptide and a 6xHis-tagged ENL YEATS domain (His-ENL YEATS) were immobilized on PerkinElmer streptavidin donor and nickel-chelating (Ni-NTA) acceptor beads, respectively. The use of a His-ENL YEATS instead of the original AviSUMO-ENL YEATS construct in the assay prevents potential false positive results derived from ligands which bind to the SUMO protein but not to the ENL YEATS domain. […] We then assessed the binding affinity of two ligands for the ENL YEATS domain using biolayer interferometry (BLI). Briefly, His-ENL was immobilized onto Ni-NTA functionalized biosensors to measure the binding kinetics of target peptides at different concentrations. […] As a small peptide directly selected from a phage display library, this level of high potency was unexpected. […] However, shorter-than-10-mer linear peptides with nanomolar binding potency have rarely been directly selected from phage display libraries. One example was S2P03, a 7-mer peptide that has a KD value as 49 ± 9 nM to bind to SIRT2.[10] This peptide contained BuK and was identified also from a BuK-containing phage display library using the active site-directed ligand selection technique. Taken together, the two examples confirmed that utilizing phage display libraries incorporated with a ncAA serving as a ligand for a protein target for active site-directed ligand selection is a successful method for identifying ultrahigh potency ligands for epigenetic proteins including both enzymes and readers. For ENL-S1 and ENL-S2, their determined kon and koff values were 6.23 ± 0.07 × 10^4 M^–1 s^–1, […] and […], 5.54 ± 0.02 × 10^–3 s^–1, respectively. Compared to ENL-S2, ENL-S1 has faster binding to the ENL YEATS domain and slower release from it, indicating its potential long-term action on the ENL YEATS inhibition. […]
Characterization of Selected Peptide Inhibitors
AlphaScreen Assay to Validate ENL Inhibitors:
His-ENL, His-AF9 (aa 1-149, EpiCypher), and biotinylated H3K27cr (aa 15-33, EpiCypher) were used to assay the synthesized inhibitors. The lyophilized peptide inhibitors were dissolved in DMF […]
and serially diluted into assay buffer (50 mM HEPES, 100 mM NaCl, 0.1% BSA, 0.05% CHAPS, pH 7.4) and incubated in the presence of 120 nM His-tagged protein at 37 °C for 30 minutes. 12.5 μL of biotinylated H3K27cr (400 nM) was aliquoted into a light gray 384-well Alphaplate (Perkin Elmer) and incubated at 37 °C. 12.5 μL of the inhibitor/protein solution was added to the H3K27cr solution, and incubated for 30 minutes at 37 °C. 25 μL of AlphaScreen histidine (nickel chelate) detection beads (Perkin Elmer) was added at 20 μg/mL each bead (streptavidin donor beads and nickel chelate acceptor beads), and the plate was incubated at 37 °C for 30 minutes. The plate was cooled to room temperature for 10 minutes, and then the beads were excited at 680 nm and the luminescence at 615 nm was read. […]
Biolayer […]
interferometry assays were performed in 96 well plates (GreinerBio-One, polypropylene, flat-bottom) using an Octet Red96 System (Sartorius). Wells were filled with 200 μL of assay buffer, blocking buffer (assay buffer + 0.1% BSA), protein solution, peptide solution, regeneration solution, and reload solution. For immobilization, His-tagged proteins were immobilized onto Ni-NTA sensors at 20 for 600 s. Sensors were then dipped into blocking buffer for 180 s, assay […] buffer for 300 s, peptide solution for 300 s, and back to assay buffer for 300 s. If multiple samples were tested, Ni-NTA sensors can be reconditioned in regeneration (10 mM glycine, pH 1.7) solution followed by reload solution (10 mM NiCl2) for 30 and 60 s, respectively. Measurements […]

[2] = molecular target: T2, ENL YEATS domain (His-ENL) (Homo sapiens, UniProt Q03111); assay: Biolayer interferometry (BLI) binding to ENL YEATS; conditions: for Selectivity (ENL:AF9) from BLI KD values: ratio KD,AF9 / KD,ENL
T2 construct: (aa 1−148) was cloned in pET19b; made in house; host or cells: E. coli BL21(DE3pLysS)
T2 sequence (Q03111 1-148): T1 sequence (Q03111 1-148)
Description: as §1
Biolayer Interferometry to Validate ENL Ligands:
His-ENL, His-AF9 (aa 1-149, EpiCypher), His-GAS41 (aa 15-160, EpiCypher), and YEATS2-His (aa 200-345, EpiCypher) were reconstituted in water and diluted into assay buffer (20mM Tris, 300 mM NaCl, pH 7.9) for immobilization onto Octet Ni-NTA biosensors (Sartorius). Lyophilized peptides were dissolved in DMF and diluted to designated concentrations in assay buffer. Biolayer interferometry assays were performed in 96 well plates (GreinerBio-One, polypropylene, flat-bottom) using an Octet Red96 System (Sartorius). Wells were filled with 200 μL of assay buffer, blocking buffer (assay buffer + 0.1% BSA), protein solution, peptide solution, regeneration solution, and reload solution. For immobilization, His-tagged proteins were immobilized onto Ni-NTA sensors at 20 for 600 s. Sensors were then dipped into blocking buffer for 180 s, assay […] buffer for 300 s, peptide solution for 300 s, and back to assay buffer for 300 s. If multiple samples were tested, Ni-NTA sensors can be reconditioned in regeneration (10 mM glycine, pH 1.7) solution followed by reload solution (10 mM NiCl2) for 30 and 60 s, respectively. Measurements were carried out at 30 °C. Data were analyzed within the ForteBio Data Analysis software. Data were processed by double subtracting ligand only and protein only reference wells and aligning the data to the beginning of the association. Then, global kinetic fit was performed for all sensogram curves with a 1:1 model. Steady state KD values were reported.
AlphaScreen Assay with Biotinylated-ENL-S1:
The AlphaScreen assay was carried out in 384-well plates. Manual assay setup was performed in a 40 uL reaction buffer (50 mM HEPES pH 7.4, 100 mM NaCl, 0.1% bovine serum albumin, and 0.05% CHAPS). 10 µL of varying concentrations of His-ENL YEATS (0-300 nM) and 10 µL of […]

SMILES | IC50 [1] | Kd ([2]; BLI) | kon ([2]; BLI) [M⁻¹ s⁻¹] | Selectivity (ENL:AF9) from BLI KD values [2] [fold]
CCCC(=O)NCCCC[C@H](NC(=O)[C@H](Cc1ccc(O)cc1)NC(=O)[C@H](CS)NC(=O)[C@H](Cc1ccc(O)cc1)NC(=O)[C@@H](NC(=O)[C@H](CC(=O)O)NC(=O)[C@@H](N)Cc1ccc(O)cc1)C(C)C)C(N)=O [ENL-S1] (H-YDVYCYK(Butyryl)-NH2) | 62.6 ± 1.4 nM | 36.3 nM and 36 nM | 62300 ± 7e+06 | 5.6
C/C=C/C(=O)NCCCC[C@H](NC(=O)[C@H](Cc1ccc(O)cc1)NC(=O)[C@H](CS)NC(=O)[C@H](Cc1ccc(O)cc1)NC(=O)[C@@H](NC(=O)[C@H](CC(=O)O)NC(=O)[C@@H](N)Cc1ccc(O)cc1)C(C)C)C(N)=O [ENL-S1c] (H-YDVYCYK(Crotonyl(E))-NH2) | 20 nM | 16.2 nM |  | 9.1
CC(C)[C@H](NC(=O)[C@H](CC(=O)O)NC(=O)[C@@H](N)Cc1ccc(O)cc1)C(=O)N[C@@H](Cc1ccc(O)cc1)C(=O)N[C@@H](CS)C(=O)N[C@@H](Cc1ccc(O)cc1)C(=O)N[C@@H](CCCCNC(=O)c1ccco1)C(N)=O [ENL-S1f] (H-YDVYCYK(2Furoyl)-NH2) | 22.4 ± 2.2 nM | 10.3 nM |  | 14.0
CC(C)[C@H](NC(=O)[C@H](CC(=O)O)NC(=O)[C@@H](N)Cc1ccc(O)cc1)C(=O)N[C@@H](Cc1ccc(O)cc1)C(=O)N[C@@H](CS)C(=O)N[C@@H](Cc1ccc(O)cc1)C(=O)N[C@@H](CCCCNC(=O)c1cnco1)C(N)=O [ENL-S1o] (H-YDVYCYK(Oxazole(5-CO))-NH2) | 10 nM and 10.3 nM | 2 nM |  | 27.6
